The source of these data is patent US6680373B2, “P2U2 receptor antibodies” (Millennium Pharmaceuticals, Inc., priority 1995, dated 2004).

The assay concerns the target T1, P2U2 receptor (Homo sapiens, UniProt Q9BXA5).
T1 construct: The native human receptor was produced in oocytes by cloning the 500 bp 5′ truncation of the full-length kidney cDNA clone; expressed in transfected cells; host or cells: Xenopus laevis oocytes injected with capped in vitro transcribed RNA (pcDNA3 template, T7 polymerase)
T1 sequence (Q9BXA5 1-334): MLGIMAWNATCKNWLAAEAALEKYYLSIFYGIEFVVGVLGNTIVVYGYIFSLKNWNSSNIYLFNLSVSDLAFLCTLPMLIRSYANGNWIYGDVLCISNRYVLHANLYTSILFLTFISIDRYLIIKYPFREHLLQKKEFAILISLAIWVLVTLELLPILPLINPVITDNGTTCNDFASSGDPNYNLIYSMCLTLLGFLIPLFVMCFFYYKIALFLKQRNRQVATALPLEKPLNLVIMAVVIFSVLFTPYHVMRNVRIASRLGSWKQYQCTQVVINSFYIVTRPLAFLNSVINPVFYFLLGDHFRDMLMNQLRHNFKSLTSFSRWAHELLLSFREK
Kind of assay: Two-electrode voltage clamp of agonist-induced chloride currents in Xenopus oocytes injected with P2U2 receptor cRNA. In kind it is cell-based. The conditions noted are these: receptor expressed in Xenopus oocytes; for order of specificity as agonists of the P2U2 receptor: potencies close in value, a mere five-fold difference. The procedure: As indicated above, receptor activation can also be measured by means of the two-electrode voltage clamp assay. In this assay, agonist-induced inward chloride currents are measured in voltage-clamped oocytes that express the P2U2 receptor. The technique suitable for use in the instant invention is described by Julius, et al, Science 241:558-563 (1988). The native human receptor was produced in oocytes by cloning the 500 bp 5' truncation of the full-length kidney cDNA clone into the mammalian expression vector pcDNA3 (Invitrogen). Linearized DNA was used as a template for T7 polymerase (Ambion, Promega) for generation of capped in vitro transcribed mRNA following the suppliers specifications. Adult female Xenopus laevis were anesthetized in […] 3-aminobenzoic acid ethyl ester for 10 minutes and 1 or 2 ovarian lobes were removed, followed by immediate suturing of the incisions. Oocytes were defolliculated at room temperature with collagenase (2 mg/ml) in Ca^+2-free medium (OR-2) for 1-2 hr. Oocytes were stored at […] in ND-96 (96 mM sodium chloride, 2 mM potassium chloride, 1.8 mM calcium chloride, 1 mM magnesium chloride, 5 mM HEPES (N[2-hydroxyethylpiperazine-N'[2-ethanesulfonic acid) with penicillin/streptomycin and injected with 50 nl RNA (1-2 μg/μl) 18-24 h after removal of the oocytes. Before recording, injected oocytes were stored at 18° C. for 2-3 days with daily media changes. A two-electrode voltage clamp (Axon Axoclamp2B) was used to measure agonist-induced currents from individual oocytes. Electrodes were pulled to […] of 0.2-1 MΩ and filled with 3M KCl. Recordings were made at room temperature in ND96 from oocytes clamped at -70 mV using different agonist concentrations. Water-injected oocytes were used as a control.
A general note: In two-electrode clamp one electrode senses voltage and the other passes current.

Molecules are shown by their SMILES.

On to `Nc1ncnc2c1ncn2[C@@H]1O[C@H](COP(=O)(O)OP(=O)(O)O)[C@@H](O)[C@H]1O` [ADP], for which the “activation of the P2U2 receptor” value is “activated” and the “order of specificity as agonists of the P2U2 receptor” value (from here on “order of specificity”) is “UTP>UDP>ADP>ATP”.

On to `Nc1ncnc2c1ncn2[C@@H]1O[C@H](COP(=O)(O)OP(=O)(O)OP(=O)(O)O)[C@@H](O)[C@H]1O` [ATP], for which the “activation of the P2U2 receptor” value is reported as “activated” and the “order of specificity” value was “UTP>UDP>ADP>ATP”.

Consider `O=c1ccn([C@@H]2O[C@H](COP(=O)(O)OP(=O)(O)O)[C@@H](O)[C@H]2O)c(=O)[nH]1` [UDP], for which the “activation of the P2U2 receptor” value is “activated” and the “order of specificity” value is reported as “UTP>UDP>ADP>ATP”.

In the case of `O=c1ccn([C@@H]2O[C@H](COP(=O)(O)OP(=O)(O)OP(=O)(O)O)[C@@H](O)[C@H]2O)c(=O)[nH]1` [UTP], the “activation of the P2U2 receptor” value is given as “activated” and the “order of specificity” value was “UTP>UDP>ADP>ATP”.
